Results on one molecule are retold here after PMC9401487 (Clinical Cancer Research, 2021).

In one assay the test system is pRAD50. The assay can be described thus: pRAD50 IHC H-score in paired tumor biopsies. The assay is classed as in vivo, human.
Assay [1] concerns LoVo colorectal cancer cell line. Kind of assay: LoVo growth inhibition, ceralasertib alone or with carboplatin. Type of assay: cell-based, human.

As to `C[C@@H]1COCCN1c1cc(C2([S@](C)(=N)=O)CC2)nc(-c2cc[nH]c3nccc2-3)n1` [ceralasertib], the “pRAD50 expression following treatment” value in the assay with pRAD50 (all four evaluable paired tumor biopsies) was “clear increases in pRAD50 expression”. Moreover, the “Increase in pRAD50 expression” value in the assay with pRAD50 (cohort 7 patient, baseline ATM 20%, H-scores of 20–80) is recorded as 400%. For the same molecule, the “Combination cell killing with carboplatin” value in assay [1] (0.1 μmol/L ceralasertib) is recorded as “not at 0.1 μmol/L”; in assay [1] (0.3 μmol/L ceralasertib) it was “combination cell killing with carboplatin was seen”; in assay [1] (1 μmol/L ceralasertib), “Greater cell killing”.
